“Also recorded” adds a separate entry of the source.
Key:
cardioids (hPSC-derived) [1] = assay: High-throughput imaging of cardioid diameter and cavity expansion at the cardiac mesoderm stage (day 3.5); assay type: cell-based, human; settings: for cardiac mesoderm density / cell number per cardioid: BMP inhibition with Noggin or LDN193189, initial two days of cardiac mesoderm stage; for cavity expansion / cavity morphogenesis / organoid/cardioid diameter (size): Noggin 100 ng/ml or LDN193189 0.2 μM, initial two days of cardiac mesoderm stage
Description: (§1) Image acquisition and analysis—Fixed whole mounts and sections were imaged with point scanning (upright Zeiss LSM800 Axio Imager with an Apochromat 20× objective lens at 1× magnification) and spinning disk confocal microscopes (Olympus spinning disk system based on a IX3 Series (IX83) inverted microscope, equipped with a Yokogawa W1 spinning disc), or a widefield microscope (Zeiss Axio Imager 2, Axio Vert A1, Panoramic FLASH 250 II System). Live imaging experiments were performed using a Zeiss Celldiscoverer 7 or above-mentioned spinning disk microscope. For high-throughput imaging and analysis, images were taken with a Celigo Imaging Cytometer microscope (Nexcelom Biosciences, LLC) and analyzed with custom-made scripts written for the FIJI software. Sections for transmission electron microscopy were examined with aFEI Morgagni 268D TEM (FEI, Eindhoven, The Netherlands) operated at 80 kV. Images were acquired using an 11 megapixel Morada CCD camera (Olympus-SIS).
We next used cardioids to dissect how signaling controls intrinsic morphogenesis and patterning during cardioid specification. To quantify phenotypes with high statistical power, we combined the high-throughput cardioid platform with a custom-made semi-automated imaging/analysis FIJI-pipeline. Using this setup, we examined which signals control cardioid self-organization and at what stage of mesodermal specification they act. We first systematically tested the effects of key mesoderm and cardiac mesoderm signaling dosages (e. g. WNT, BMP) on cardiac cavity self-morphogenesis. […] An intermediate WNT dosage promoted both cavity morphogenesis and CM specification. The optimal WNT activation range was consistent for each hPSC line but differed across lines, consistent with numerous studies showing line-specific signaling responses. Importantly, the highest WNT dosage promoted cavity formation without CM specification (FIG. 16A), highlighting a striking difference in signaling control of cell-fate specification versus morphogenesis.

[2] = tested on: cardiac organoids (hPSC-derived); assay: Reporter imaging / immunostaining of cardiomyocyte and endothelial cell organisation in cardiac organoids; assay type: cell-based, human; settings: for location of endothelial cell layer: with VEGF; for organization of cardiomyocytes and endothelial cells: Wnt-inhibitor during differentiation, CHIR99021 5 μM or 6 μM; for EC lining of cavity: VEGF(-A) added after CM specification stage; for separation of CM and EC layers: VEGF(-A) included at cardiac mesoderm stage
Description: (§2) Immunostaining—Following fixation with 4% PFA (Sigma-Aldrich, #16005) specimens were washed twice in 1×PBS and the 3D constructs additionally once in PBS/Tween20 (0.1%, Sigma-Aldrich, #P1379) for at least 15 min each. Tissues were incubated in blocking solution consisting of PBS (Gibco, #14190094) with 4% goat (Bio-Rad Laboratories, #C07SA) or donkey serum (Bio-Rad Laboratories, #C06SB) and 0.2% Triton X-100 (Sigma-Aldrich, #T8787) for at least 15 minutes. The primary antibody was subsequently applied in above blocking buffer for 1-3 hours at room temperature or overnight at 4° C. in the case of the 2D samples and 2 days at 4° C. on a shaker for 3D samples. Following washing twice with PBS/Tween20, 3D tissues were incubated with the secondary antibody solution at 4° C. on a shaker for 2 more days while 2D samples were incubated up to 2 hours at room temperature. Following these washing steps and an additional PBS wash, tissues were ready for analysis or storage at 4° C. in PBS, while slides were mounted using fluorescence mounting medium (Dako Agilent Pathology Solutions, #S3023). 3D tissues were cleared with FocusClear (CellExplorer Labs, #FC-101) prior to imaging.
as §1

cardioids (hPSC-derived) [3] = assay: RNA-seq gene expression of cardioids induced with high vs low CHIR99021; assay type: cell-based, human
Description: RNA isolation and RNA-seq/Smart-Seq2/single-cell (sc)RNA-seq preparation—RNA was isolated with the RNeasy Mini Kit (Qiagen, #74104). Generation of the bulk RNA-seq libraries was performed according to the manufacturer's instructions with QuantSeq 3′ mRNA-Seq Library Prep Kit FWD (Lexogen GmbH, #015). After the preparation of the libraries, samples were checked for an adequate size distribution with a fragment analyzer (Advanced Analytical Technologies, Inc) and were submitted to the Vienna Biocenter Core Facilities (VBCF) Next-Generation-Sequencing (NGS) facility for sequencing. For Smart-Seq2 analysis, 400 cells were sorted into lysis buffer and stored at −80° C. until further processing. […]
Bioinformatic analysis—Trimming was performed for Smart-Seq2 experiments using trim-galore v0.5.0 and for QuantSeq 3′ mRNA-Seq experiments using BBDuk v38.06 (ref=polyA.fa.gz,truseq.fa.gz k=13 ktrim=r useshortkmers=t mink=5 qtrim=r trimq=10 minlength=20). Reads mapping to abundant sequences included in the iGenomes UCSC hg38 reference (human rDNA, human mitochondrial chromosome, phiX174 genome, adapter) were removed using bowtie2 v2.3.4.1 alignment. Remaining reads were analyzed using genome and UCSC gene annotation provided in the iGenomes UCSC hg38 bundle (support.illumina.com/sequencing/sequencingsoftware/igenome.html). […]

hPSCs (WTC MYH10-GFP) = assay: Mesoderm induction of hPSC aggregates (T / SOX2 staining); assay type: cell-based, human; settings: 8 uM CHIR99021, 40 h of mesoderm induction, 1000 hPSCs
Description: as §2

[4] = tested on: cardiac organoids (hPSC-derived, WTC MYL7-GFP/CDH5-Tomato)
Description: Generation of cardiac organoids with endothelial lining—Pluripotency maintenance medium was refreshed 6 h prior to seeding cells. Then, 2500-3000 hPSC were seeded into ultra-low cluster 96-well plates (Corning) in FLyAB(Ins) medium with CHIR (5-6 μM) and ROCKi (5 μM) for 36 h-40 h.
In order to stop endothelial cell differentiation, 100 nM sunitinib malate (Biovision, #1611) was added from the cardiac mesoderm stage (BFIIWPRa) onward.
Flow cytometry—Cells were dissociated using the CM dissociation kit (Stem Cell Technologies, #05025). After centrifugation for 3 min at 130 g, cells were resuspended in 300 μl PBS supplemented with 0.5 mM EDTA (Biological Industries, #01-862-1B) and 10% FBS (PAA Laboratories, #A15-108). Cells were acquired with a FACS LSR Fortessa II (BD) and analysed with FlowJo V10 (FlowJo, LLC) software. FACS sorting was performed using a Sony SH800 Cell Sorter (Sony Biotechnology).

[5] = tested on: cardiac mesoderm cavity structures (cardioids); assay: Dextran incorporation assay in cardioids; assay type: cell-based, human; settings: low-molecular-weight (4 kDa) dextran, cardiac mesoderm stage
Description: Dextran and Fluo-4 incorporation assays—A 4.4 kDa Dextran conjugated with TAMRA (Sigma Aldrich, T1037) was added to the cardioid culture between 64 h and 90 h. Cardioids were live imaged as cavities started to form. To image and analyze calcium-transients, 3D cardioids and 2D CM were loaded with Fluo-4 AM (Thermo Fisher Scientific, #F14217). After a 15-min incubation, cardioids were incubated for another 15 min in Tyrode's salt solution (Sigma Aldrich, #T2397). Subsequently, cardioids were imaged live and videos were analyzed with FIJI software (Schindelin et al., 2012, Nature Methods 9, 676-682) to acquire the signal intensity (F) of regions of interest and background (F0).

[6] = +Sunitinib (100 μM [sic]), end of differentiation day 7.5

Cc1c[nH]c(-c2cnc(NCCNc3ccc(C#N)cn3)nc2-c2ccc(Cl)cc2Cl)n1 [CHIR99021]
cavity defect of HAND1 KO organoids (cardioids (hPSC-derived) [1]; increased CHIR99021 during mesoderm induction, HAND1 KO (H9), d3.5): rescues cavity defect in HAND1 KO organoids
cardioid diameter / lumen expansion as function of CHIR99021 dosage (cardioids (hPSC-derived) [1]; range of CHIR99021 concentrations during mesoderm induction, day 3.5): dramatic effects on cardioid diameter; also recorded: striking effects on lumen expansion
endothelial lining of cavities ([2]; 4 uM CHIR99021 during induction, d27, WTC MYL7-GFP): lining of internal cavities by endothelial (CD31+) cells
apoptosis (cleaved caspase 3 staining) ([2]; 4 μM CHIR condition): increased levels inside the EC ring
apoptosis (cleaved caspase 3 staining) ([2]; 6 μM CHIR condition): low levels of apoptosis
location of endothelial cell layer ([2]; high WNT activity, 5-8 μM CHIR during mesoderm induction): compartment/lining around the cardiomyocytes
location of endothelial cell layer ([2]; lower WNT activity, 4 μM (1-4 μM) CHIR during mesoderm induction): inner ring of EC expressing CD31
location of endothelial cell layer ([2]; lower WNT activity, 4 μM (1-4 μM) CHIR during mesoderm induction, listed as CHIR): inside lining facing the cavity
EC genes (PECAM1, CDH5, VEGFA, TAL1, LMO2, ETV2) expression (cardioids (hPSC-derived) [3]; 4 μM CHIR99021 during mesoderm induction vs 8 μM): upregulated; also recorded: higher expression of EC-specifying genes
BMP target genes (HAND1, IRX3, BMP4, BMP2, BMPR2) expression (cardioids (hPSC-derived) [3]; 8 μM during mesoderm induction (cavity-forming conditions)): upregulated
exit from pluripotency (T up, SOX2 down) (hPSCs (WTC MYH10-GFP)): efficiently exited pluripotency

Oc1nc(-c2ccc(C(F)(F)F)cc2)nc2c1CSCC2 [XAV939]
organization of cardiomyocytes and endothelial cells [2]: two-layered organization

c1ccc2c(-c3cnn4cc(-c5ccc(N6CCNCC6)cc5)cnc34)ccnc2c1 [LDN193189]
cardiac mesoderm density (cardioids (hPSC-derived) [1]): denser cardiac mesoderm
cell number per cardioid (cardioids (hPSC-derived) [1]): remained stable
cavity expansion / cavity morphogenesis (cardioids (hPSC-derived) [1]): interfere with cavity expansion; also recorded: impaired cavity morphogenesis
organoid/cardioid diameter (size) (cardioids (hPSC-derived) [1]; day 3.5): significantly decreased diameter; also recorded: reduces cardioid diameter; also recorded: decreased cardioid size

VEGF
cell composition of cardioid-like structures ([2]; VEGF during cardiac mesoderm stage, no WNT inhibition): containing only ECs and fibroblast-like cells without CMs; also recorded: contained primarily ECs and COL1A1^+ cells, without CMs
EC lining of cavity [2]: occasionally led to partial EC lining of cavities but often also to ECs forming a partial outside layer
EC lining of cavity ([2]; listed as VEGF-A): occasionally observed formation of an EC layer lining the cardioid cavity
separation of CM and EC layers [2]: separate into a CM and an EC layer with a space between them
separation of CM and EC layers ([2]; listed as VEGF-A): separated into CM and EC layers
cardiomyocytes (MYL7+) in organoids ([4]; VEGF 200 ng/ml at cardiac mesoderm stage, intermediate WNT activation): ~41%
endothelial cells (CDH5+) in organoids ([4]; VEGF 200 ng/ml at cardiac mesoderm stage, intermediate WNT activation, listed as VEGF-A): 53%

dextran
permeability of cavity structures [5]: impermeable
permeability of cavity structures ([5]; listed as dextrans): not permeable

Cc1ccc2nc(NC(=O)CSc3nc4c(c(=O)n3-c3ccccc3)SCC4)sc2c1 [IWP2]
organization of cardiomyocytes and endothelial cells [2]: two-layered organization

O=C(Nc1cccc2cccnc12)c1ccc(N2C(=O)[C@@H]3[C@H](C2=O)[C@@H]2C=C[C@H]3C2)cc1 [IWR-1]
organization of cardiomyocytes and endothelial cells [2]: two-layered organization

CCN(CC)CCNC(=O)c1c(C)[nH]c(/C=C2\C(=O)Nc3ccc(F)cc32)c1C [Sunitinib]
MYL7-GFP expressing cardiomyocytes [4, 6]: 96%
cells expressing the endothelial marker CDH5-Tomato [4, 6]: 3%
cardiomyocytes in organoids ([4]; Sunitinib 100 nM in the first 10 days of differentiation or longer): over 95%

B1: BMP4: bone morphogenetic protein 4 (protein, UniProt P12644 293-408, looked up)
Bone morphogenetic protein 4: SPKHHSQRARKKNKNCRRHSLYVDFSDVGWNDWIVAPPGYQAFYCHGDCPFPLADHLNSTNHAIVQTLVNSVNSSIPKACCVPTELSAISMLYLDEYDKVVLKNYQEMVVEGCGCR
cavity expansion (cardioids (hPSC-derived) [1]; BMP signalling dosage at cardiac mesoderm stage, higher levels of BMP4): drove cavity expansion

B2: Noggin (protein, UniProt Q13253 28-232, looked up)
Noggin: QHYLHIRPAPSDNLPLVDLIEHPDPIFDPKEKDLNETLLRSLLGGHYDPGFMATSPPEDRPGGGGGAAGGAEDLAELDQLLRQRPSGAMPSEIKGLEFSEGLAQGKKQRLSKKLRRKLQMWLWSQTFCPVLYAWNDLGSRFWPRYVKVGSCFSKRSCSVPEGMVCKPSKSVHLTVLRWRCQRRGGQRCGWIPIQYPIISECKCSC
cardiac mesoderm density (cardioids (hPSC-derived) [1]): denser cardiac mesoderm
cell number per cardioid (cardioids (hPSC-derived) [1]): remained stable
cavity expansion / cavity morphogenesis (cardioids (hPSC-derived) [1]): interfere with cavity expansion; also recorded: heavily impaired cavity expansion; also recorded: impaired cavity morphogenesis
organoid/cardioid diameter (size) (cardioids (hPSC-derived) [1]; day 3.5): significantly decreased diameter; also recorded: reduces cardioid diameter; also recorded: decreased cardioid size

From patent US12631623B2, “Heart tissue model” (IMBA—INSTITUT FÜR MOLEKULARE BIOTECHNOLOGIE GMBH, priority 2020, dated 2026)
